Data as given in ChEMBL document CHEMBL1201862, “PubChem BioAssay data set” (2004).
Structures can show the parent of a compound that is named as a salt.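 96-well plates; 48 h exposure; 5 concentrations. Endpoints by linear interpolation between flanking doses. Not reached: highest tested concentration assigned. Here, GI50 denotes the concentration required for 50% inhibition of growth.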 The source made the active and inactive calls. Rule as the data show it: active = GI50 up to about 1.1 µM and inactive = higher.

Tests used:
Assay in all cases: NCI anticancer screen, dose series, 48 h
[1] = test system: A498
[2] = test system: COLO 205
[3] = test system: EKVX
[4] = test system: HL-60
[5] = test system: HOP-92
[6] = test system: Hs-578T
[7] = test system: LOX IMVI
[8] = test system: Malme-3M
[9] = test system: OVCAR-3
[10] = test system: OVCAR-5
[11] = test system: RPMI-8226
[12] = test system: RXF 393
[13] = test system: SF-268
[14] = test system: SF-539
[15] = test system: SK-MEL-2
[16] = test system: SK-OV-3
[17] = test system: SN12C
[18] = test system: TK-10
[19] = test system: UO-31
[20] = test system: DLD-1

Compound	GI50 [1]	GI50 [2]	GI50 [3]	GI50 [4]	GI50 [5]	GI50 [6]	GI50 [7]	GI50 [8]	GI50 [9]	GI50 [10]	GI50 [11]	GI50 [12]	GI50 [13]	GI50 [14]	GI50 [15]	GI50 [16]	GI50 [17]	GI50 [18]	GI50 [19]	GI50 [20]
O=S(=O)(O)n1ccnc1	> 100 µM (inactive)	> 100 µM (inactive)	> 100 µM (inactive)	> 100 µM (inactive)	> 100 µM (inactive)	> 100 µM (inactive)	> 100 µM (inactive)	> 100 µM (inactive)	> 100 µM (inactive)	> 100 µM (inactive)	> 100 µM (inactive)	> 100 µM (inactive)	> 100 µM (inactive)	> 100 µM (inactive)	77.3 µM (inactive)	> 100 µM (inactive)	> 100 µM (inactive)	> 100 µM (inactive)	> 100 µM (inactive)	
COc1ccc(C(C#N)NNC(=O)c2ccccc2O)cc1OC (centres undefined)		35.6 µM (inactive)		1.76 µM (inactive)			0.735 µM (active)	11.7 µM (inactive)	2.55 µM (inactive)	15.1 µM (inactive)	4.24 µM (inactive)	0.902 µM (active)	0.468 µM (active)	0.705 µM (active)	0.667 µM (active)	0.889 µM (active)	0.767 µM (active)	14.6 µM (inactive)	0.379 µM (active)	0.9 µM (active)
C[n+]1cc(C(O)c2ccc3c(c2)OCO3)c2ccccc2c1 (centres undefined)	29.9 µM (inactive)	33.2 µM (inactive)	27 µM (inactive)				46 µM (inactive)	25.4 µM (inactive)	28.8 µM (inactive)	> 100 µM (inactive)	13.9 µM (inactive)	14.1 µM (inactive)	28.6 µM (inactive)	30.2 µM (inactive)	26.2 µM (inactive)	45.5 µM (inactive)	40.6 µM (inactive)	36.8 µM (inactive)	16.6 µM (inactive)	31.8 µM (inactive)
Cn1c(=O)[nH]c2nccnc2c1=O	> 10 µM (inactive)	> 10 µM (inactive)	> 10 µM (inactive)	> 10 µM (inactive)	> 10 µM (inactive)	> 10 µM (inactive)	> 10 µM (inactive)	> 10 µM (inactive)	> 10 µM (inactive)	> 10 µM (inactive)	> 10 µM (inactive)	> 10 µM (inactive)	> 10 µM (inactive)	> 10 µM (inactive)	> 10 µM (inactive)	> 10 µM (inactive)	> 10 µM (inactive)	> 10 µM (inactive)	> 10 µM (inactive)	
Nn1c(-c2cccc(Cl)c2)nc2ccccc2c1=O	> 100 µM (inactive)	> 100 µM (inactive)	> 100 µM (inactive)	> 100 µM (inactive)	> 100 µM (inactive)			> 100 µM (inactive)	> 100 µM (inactive)	> 100 µM (inactive)	> 100 µM (inactive)		> 100 µM (inactive)	> 100 µM (inactive)	> 100 µM (inactive)	> 100 µM (inactive)	> 100 µM (inactive)	> 100 µM (inactive)	> 100 µM (inactive)	> 100 µM (inactive)
COc1cc2c(cc1OC)C(C(CO)CO)N(CC(O)CCl)CC2 (centres undefined)	> 100 µM (inactive)	> 100 µM (inactive)	> 100 µM (inactive)	> 100 µM (inactive)	> 100 µM (inactive)		> 100 µM (inactive)	> 100 µM (inactive)	> 100 µM (inactive)	> 100 µM (inactive)	> 100 µM (inactive)		> 100 µM (inactive)	> 100 µM (inactive)	> 100 µM (inactive)	> 100 µM (inactive)		> 100 µM (inactive)	86.5 µM (inactive)	> 100 µM (inactive)
CSc1nc(Cl)c(Br)c(Sc2nc(N)nc3nc[nH]c23)n1		15.7 µM (inactive)		3.63 µM (inactive)	7.28 µM (inactive)			13.4 µM (inactive)	15.2 µM (inactive)	11.8 µM (inactive)	2.25 µM (inactive)		3.44 µM (inactive)	2.81 µM (inactive)	4.78 µM (inactive)			6.79 µM (inactive)	5.01 µM (inactive)	11.1 µM (inactive)
CC1CC2C(=O)NC(=O)C2c2[nH]c3ccccc3c21 (centres undefined)		> 100 µM (inactive)	> 100 µM (inactive)	40.6 µM (inactive)	34.4 µM (inactive)		> 100 µM (inactive)	> 100 µM (inactive)	96.2 µM (inactive)	> 100 µM (inactive)	> 100 µM (inactive)		> 100 µM (inactive)	> 100 µM (inactive)	> 100 µM (inactive)	> 100 µM (inactive)	78.7 µM (inactive)		71.4 µM (inactive)	> 100 µM (inactive)
CCCCCCCCCCCCCCCC(=O)OCC1CCCN2CCCCC12 (centres undefined)	> 100 µM (inactive)	> 100 µM (inactive)	> 100 µM (inactive)	> 100 µM (inactive)	> 100 µM (inactive)	> 100 µM (inactive)	> 100 µM (inactive)	> 100 µM (inactive)	> 100 µM (inactive)	> 100 µM (inactive)	> 100 µM (inactive)	> 100 µM (inactive)	> 100 µM (inactive)	> 100 µM (inactive)	> 100 µM (inactive)	> 100 µM (inactive)	> 100 µM (inactive)	> 100 µM (inactive)	> 100 µM (inactive)	
O=[N+]([O-])c1ccc(NC(=S)Nc2ccccn2)cc1	12.8 µM (inactive)	18.5 µM (inactive)	8.45 µM (inactive)	14 µM (inactive)	72.4 µM (inactive)	13.8 µM (inactive)	16.4 µM (inactive)	72.9 µM (inactive)	18.6 µM (inactive)	27.7 µM (inactive)	> 100 µM (inactive)	4.68 µM (inactive)	26.9 µM (inactive)	8.63 µM (inactive)	> 53.1 µM (inactive)	47 µM (inactive)	37.2 µM (inactive)	31.3 µM (inactive)	26.2 µM (inactive)	
Cc1cc(OC2OC(CO)C(O)C(O)C2O)ccc1O (centres undefined)	> 100 µM (inactive)	> 100 µM (inactive)	> 100 µM (inactive)	> 100 µM (inactive)	> 100 µM (inactive)	> 100 µM (inactive)	> 100 µM (inactive)	> 100 µM (inactive)	> 100 µM (inactive)	> 100 µM (inactive)	> 100 µM (inactive)	> 100 µM (inactive)	> 100 µM (inactive)	> 100 µM (inactive)	> 100 µM (inactive)	> 100 µM (inactive)	> 100 µM (inactive)	> 100 µM (inactive)	> 100 µM (inactive)	
Cc1nc2c(n1CCO)C(=O)c1ccccc1C2=O		18.9 µM (inactive)	55 µM (inactive)	19.9 µM (inactive)			23.4 µM (inactive)	11.8 µM (inactive)	24.3 µM (inactive)			33.7 µM (inactive)	32.5 µM (inactive)	29.9 µM (inactive)	18.4 µM (inactive)	> 100 µM (inactive)	31.4 µM (inactive)	> 100 µM (inactive)	> 100 µM (inactive)	38.2 µM (inactive)
CCOC(=O)CC(C)C1(C=O)CCCCC1=O (centres undefined)	> 100 µM (inactive)	29.3 µM (inactive)	> 100 µM (inactive)	> 100 µM (inactive)			18.3 µM (inactive)	> 100 µM (inactive)	> 100 µM (inactive)	> 100 µM (inactive)	20.6 µM (inactive)	> 100 µM (inactive)	> 100 µM (inactive)	> 100 µM (inactive)	> 100 µM (inactive)	> 100 µM (inactive)	> 100 µM (inactive)	> 100 µM (inactive)	> 100 µM (inactive)	56 µM (inactive)
C[Si](C)(C)c1ccc(-c2sc(-c3ccc([Si](C)(C)C)s3)c3c2C[Si]2(C3)Cc3c(-c4ccc([Si](C)(C)C)s4)sc(-c4ccc([Si](C)(C)C)s4)c3C2)s1		> 100 µM (inactive)		> 100 µM (inactive)	> 100 µM (inactive)		> 100 µM (inactive)	> 100 µM (inactive)	> 100 µM (inactive)	> 100 µM (inactive)	> 100 µM (inactive)	> 100 µM (inactive)	> 100 µM (inactive)	> 100 µM (inactive)		> 100 µM (inactive)	> 100 µM (inactive)	> 100 µM (inactive)	> 100 µM (inactive)	> 100 µM (inactive)
O=C(/C=C/c1ccc(OCc2ccccc2)cc1)NCc1ccc(C(=O)NCCc2c[nH]c3ccccc23)cc1	38.9 µM (inactive)	> 75.5 µM (inactive)	> 87.1 µM (inactive)	6.22 µM (inactive)	21 µM (inactive)	6.35 µM (inactive)	44.3 µM (inactive)	12.9 µM (inactive)	29 µM (inactive)	18.2 µM (inactive)	> 100 µM (inactive)	7.06 µM (inactive)	11.1 µM (inactive)	2.67 µM (inactive)	31 µM (inactive)	15.7 µM (inactive)	23.8 µM (inactive)	9.35 µM (inactive)	35 µM (inactive)	
CC(NC(C)(C)C)C(=O)c1cccc(Cl)c1 (centres undefined) [BUPROPION HYDROCHLORIDE]	> 100 µM (inactive)	> 100 µM (inactive)	> 100 µM (inactive)				> 100 µM (inactive)	> 100 µM (inactive)	> 100 µM (inactive)		> 100 µM (inactive)	> 100 µM (inactive)	> 100 µM (inactive)	> 100 µM (inactive)	> 100 µM (inactive)	> 100 µM (inactive)	> 100 µM (inactive)	> 100 µM (inactive)		> 100 µM (inactive)
